inhibition, ED50 and ED data for eleven compounds are collected here from ChEMBL document CHEMBL3243946, “A comparison of the antiserotonin, antihistamine, and anticholinergic activity of cyproheptadine with analogues having furan nuclei fused to the 10,11-vinylene bridge” (1977).

Test [1] concerns Rattus norvegicus. Description: Antiserotonin activity in Sprague-Dawley rat assessed as inhibition of feet weight gain at 10 mg/kg, sc after 30 mins. It is filed as functional, organism-based. Details: dose 10 mg/kg.
The test system of test [2] is Mus musculus. The experiment in a line: Anticholinergic activity in Carworth CF1 mouse assessed as dose required to produce pupil dilation to 1.5 micrometer units in 50% mouse at 324 mg/kg, ip. It counts as functional, organism-based. Details: dose 324 mg/kg.
Test [3] relates to Cavia porcellus. The experiment in a line: Antihistamine activity in Duncan-Hartley guinea pig assessed as protection of animal from death caused by histamine aerosol-induced bronchoconstriction at 12.5 mg/kg, ip. Details: dose 12.5 mg/kg. It is filed as functional, organism-based.
The species named for test [4] is Cavia porcellus. The experiment in a line: animal or person. It is filed as functional. Conditions: Duncan-Hartley, ip.
Description: Antihistamine activity in ip dosed Duncan-Hartley guinea pig assessed as protection of animal from death caused by histamine aerosol-induced bronchoconstriction
Test [5] relates to Mus musculus. The experiment in a line: Anticholinergic activity in ip dosed Carworth CF1 mouse assessed as dose required to produce pupil dilation to 1.5 micrometer units in 50% mouse. It counts as functional.
The subject of test [6] is Mus musculus. Description: Anticholinergic activity in ip dosed Carworth CF1 mouse assessed as pupil dilation to 15 micrometer units in 100% mouse. It counts as functional.
For test [7], the system named is Rattus norvegicus. The experiment in a line: Antiserotonin activity in sc dosed Sprague-Dawley rat assessed as inhibition of feet weight gain after 30 mins. Conditions: 0.5 h.

Each structure is given as a SMILES string. Activity calls are given as the source filed them. The rule behind the calls is not given here.

Turning to `CN1CCC(=C2c3ccccc3C3=C(c4ccccc42)C2CCC3O2)CC1`, the inhibition result in the test on Rattus norvegicus [1], in the test on Mus musculus [2] and with Cavia porcellus [3] was “inactive” each time.

Take `CN1CCC(=C2c3ccccc3C3=C(c4ccccc42)C2(C)C=CC3O2)CC1` (stereo not drawn): the inhibition result in the test on Rattus norvegicus [1], in the test with Mus musculus [2] and with Cavia porcellus [3] was “inactive” throughout.

On to `CN1CCC(=C2c3ccccc3C(CO)=C(CO)c3ccccc32)CC1`, for which the ED50 (in general, the dose at which the effect has come halfway, by size or by number of responders) in the test listed under Cavia porcellus [4] amounted to 12.5 mg/kg. For the same compound, the ED in the test with Mus musculus [5] was 4 mg/kg. In addition, in the test with Rattus norvegicus [1], the inhibition entry is “inactive”.

In the test listed under Cavia porcellus [4], `CN1CCC(=C2c3ccccc3C3=C(C(=O)OC3)c3ccccc32)CC1.O=C(O)C(=O)O` showed an ED50 of 9.7 mg/kg. Besides, the inhibition result in the test on Rattus norvegicus [1] is “inactive”. In addition, the ED in the test on Mus musculus [6] is <4 mg/kg.

As to `Cc1occ2c1-c1ccccc1C(=C1CCN(C)CC1)c1ccccc1-2`, in the test with Mus musculus [5], the ED came to 4 mg/kg. The inhibition result in the test on Rattus norvegicus [1] and in the test on Cavia porcellus [3] was “inactive” each time.

As for `CN1CCC(=C2c3ccccc3-c3cocc3-c3ccccc32)CC1`, the ED in the test with Mus musculus [5] came out at 36 mg/kg. Also, the inhibition result in the test on Rattus norvegicus [1] and with Cavia porcellus [3] was “inactive” throughout.

`C1=CC2OC1C1=C2c2ccccc2C(=C2CCNCC2)c2ccccc21`: the inhibition entry with Rattus norvegicus [1], with Mus musculus [2] and in the test with Cavia porcellus [3] was “inactive” each time.

Turning to `CN1CCC(=C2c3ccccc3C=Cc3ccccc32)CC1.Cl` [CYPROHEPTADINE HYDROCHLORIDE], the ED50 in the test filed under Cavia porcellus [4] came to 0.05 mg/kg; in the test with Rattus norvegicus [7], 0.02 mg/kg. Also, the ED in the test on Mus musculus [5] is 4 mg/kg.

Turning to `CN1CCC(=C2c3ccccc3C3COCC3c3ccccc32)CC1` (stereo not drawn), the inhibition entry in the test with Rattus norvegicus [1], in the test with Mus musculus [2] and in the test with Cavia porcellus [3] was “inactive” each time.

With `c1ccc2c(c1)C(=C1CCNCC1)c1ccccc1-c1cocc1-2`, the inhibition result with Rattus norvegicus [1], in the test on Mus musculus [2] and in the test on Cavia porcellus [3] was “inactive” throughout.

Turning to `CN1CCC(=C2c3ccccc3C3=C(c4ccccc42)C2C=CC3O2)CC1`, the inhibition entry in the test with Rattus norvegicus [1], in the test with Mus musculus [2] and in the test with Cavia porcellus [3] was “inactive” throughout.
